The subject of data set [1] is Mus musculus. Put plainly: Anticonvulsant activity in Mus musculus CF1 (mouse) assessed as protection against maximal electroshock-induced seizures at 100 to 300 mg/kg measured after 0.5 hr. In kind it is functional. (Protection in the maximal electroshock model is a classic sign of anticonvulsant action.)
In data set [2] the test system is Mus musculus. Put plainly: Anticonvulsant activity in Mus musculus CF1 (mouse) assessed as protection against subcutaneous pentylenetetrazol-induced seizures at 100 to 300 mg/kg. It counts as functional, organism-based.
Data set [3] relates to Mus musculus. In words: (§1) Neurotoxicity in Mus musculus CF1 (mouse) at 100 to 300 mg/kg by rotorod test. In kind it is toxicity, organism-based. Further details: dose 100-300 mg/kg. The conditions noted are these: mouse, in vivo. A general note: In the rotarod test animals must keep their balance on a rotating rod.
Data set [4] relates to Mus musculus. Put plainly: Anticonvulsant activity in Mus musculus CF1 (mouse) assessed as protection against maximal electroshock-induced seizures at 100 to 300 mg/kg measured after 4 hr. It counts as functional.
A short description of data set [5]: as §1. It counts as toxicity, organism-based. Further details: dose 100-300 mg/kg. The conditions noted are these: CF1, mouse, in vivo.
Data set [6] relates to Mus musculus. In words: Anticonvulsant activity in Mus musculus CF1 (mouse) assessed as protection against subcutaneous pentylenetetrazol-induced seizures at 300 mg/kg. In kind it is functional, organism-based. Details: dose 300 mg/kg.
For data set [7], the target named is GABA-A receptor; agonist GABA site (Homo sapiens) (UniProt P14867+P47870+P28472+P48169+P34903+P18505+P47869+P31644+Q16445). Put plainly: Displacement of [3H]TBOB from GABAA receptor (unknown origin) at 10 uM. It counts as protein-complex assay.
Data set [8] concerns Mus musculus. In words: Anticonvulsant activity in Mus musculus CF1 (mouse) assessed as protection against subcutaneous pentylenetetrazol-induced seizures. In kind it is functional.
In data set [9] the test system is Mus musculus. Put plainly: Neurotoxicity in Mus musculus CF1 (mouse) at 300 mg/kg by rotorod test. In kind it is toxicity, organism-based. Further details: dose 300 mg/kg. The conditions noted are these: in vivo.
Data set [10] relates to Mus musculus. Put plainly: Anticonvulsant activity in Mus musculus CF1 (mouse) assessed as protection against maximal electroshock-induced seizures at 300 mg/kg. In kind it is functional, organism-based. Further details: dose 300 mg/kg.

Calls of active or inactive are those of the source. The rule behind the calls is not given here.

By TD50 is commonly meant the 50% point of the dose-response relation for the toxic effect studied. A low value points to harm at a small dose. In general, ED50 refers to the midpoint of the dose-response relation. The term inhibition denotes the relative decrease from the control value, in per cent. Read a high inhibition as a strong effect.

In the case of `CCCCCCCC(=O)NCCC1CC(CC)(CC)C(=O)O1` (centres undefined), the outcome in the data set with Mus musculus [1] and in the data set with Mus musculus [2] was inactive.

Turning to `CCC1(CC)CC(COC(=O)c2ccc(Br)cc2)OC1=O` (centres undefined), the Activity entry in the data set on Mus musculus [3] is on record as “Non-toxic”. The result with Mus musculus [1], with Mus musculus [2] and in the data set on Mus musculus [4] was inactive.

With `CCC1(CC)CC(CNC(=O)c2ccc(Br)cc2)OC1=O` (centres undefined), in data set [5], the TD50 was found to be 285 mg/kg. Also, the ED50 was found to be 89.9 mg/kg in the data set on Mus musculus [1] (CF1, 0.5 h, dose mg/kg 100-300) and 89.9 mg/kg in the data set on Mus musculus [4] (CF1, 4 h, dose mg/kg 100-300).

In the case of `CCC1(CC)CC(CCOC(=O)c2ccc(C)cc2)OC1=O` (centres undefined), in the data set with Mus musculus [6], the result was Active. Further, the outcome in the data set with Mus musculus [1] and with Mus musculus [2] was inactive.

Take `CCC(=O)NCCC1CC(CC)(CC)C(=O)O1` (centres undefined): the inhibition in data set [7] came out at 3.62%. Also, the result with Mus musculus [1] and with Mus musculus [2] was inactive.

Regarding `CCC1(CC)CC(COC(=O)c2ccc(OC)cc2)OC1=O` (centres undefined), the Activity entry in the data set on Mus musculus [3] was “Non-toxic”; in the data set on Mus musculus [8], 300 mg/kg. The result in the data set on Mus musculus [1] and in the data set with Mus musculus [4] was inactive.

`CCC1(CC)CC(CO)OC1=O` (centres undefined) showed an inhibition in data set [7] of 9.1%.

In the case of `CCC1(CC)CC(CCOC(=O)c2ccc(OC)cc2)OC1=O` (centres undefined), the outcome in the data set on Mus musculus [1] and in the data set with Mus musculus [2] was inactive.

For `CCC1(CC)CC(COC(=O)c2ccc(C)cc2)OC1=O` (centres undefined), the Activity entry with Mus musculus [3] is given as “Non-toxic”. Besides, the result in the data set on Mus musculus [1], in the data set on Mus musculus [2] and with Mus musculus [4] was inactive.

Consider `CCC1(CC)CC(CCNC(=O)c2ccc(C)cc2)OC1=O` (centres undefined), for which the outcome in the data set on Mus musculus [1] and in the data set on Mus musculus [2] was inactive.

With `CCCCCCCC(=O)OCCC1CC(CC)(CC)C(=O)O1` (centres undefined), the outcome in the data set with Mus musculus [1] and in the data set on Mus musculus [2] was inactive.

For the molecule `CCC(=O)OCCC1CC(CC)(CC)C(=O)O1` (centres undefined), the result in the data set on Mus musculus [1] and in the data set on Mus musculus [2] was inactive.

Take `CCCCCCCC(=O)OCC1CC(CC)(CC)C(=O)O1` (centres undefined): the Activity entry in the data set on Mus musculus [3] is reported as “Non-toxic”. In addition, the result with Mus musculus [1], with Mus musculus [2] and in the data set on Mus musculus [4] was inactive.

`CCC1(CC)CC(CCNC(=O)c2ccc(Br)cc2)OC1=O` (centres undefined): the result with Mus musculus [1] and in the data set on Mus musculus [2] was inactive.

Consider `CCC1(CC)CC(CCOC(=O)c2ccccc2)OC1=O` (centres undefined), for which the inhibition in data set [7] was 3.86%. Moreover, the outcome in the data set with Mus musculus [1] and in the data set with Mus musculus [2] was inactive.

Regarding `CCC1(CC)CC(COC(=O)c2ccccc2)OC1=O` (centres undefined), the Activity entry in the data set with Mus musculus [3] is reported as “Non-toxic”. In data set [7], this molecule came in with an inhibition of 12.5%. The outcome in the data set with Mus musculus [1], in the data set with Mus musculus [2] and with Mus musculus [4] was inactive.

Regarding `CCC1(CC)CC(CCNC(=O)c2ccc(OC)cc2)OC1=O` (centres undefined), the outcome with Mus musculus [1] and in the data set on Mus musculus [2] was inactive.

For `CCC1(CC)CC(CCOC(=O)c2ccc(Br)cc2)OC1=O` (centres undefined), the result with Mus musculus [1] and in the data set on Mus musculus [2] was inactive. In the data set with Mus musculus [9], the Activity entry is reported as “Toxic”.

Regarding `CCC1(CC)CC(CCNC(=O)c2ccccc2)OC1=O` (centres undefined), the result in the data set with Mus musculus [10] was Active. The inhibition in data set [7] was determined as 0.29%. For the same molecule, the outcome in the data set on Mus musculus [1] and with Mus musculus [2] was inactive.

As to `CCC(=O)OCC1CC(CC)(CC)C(=O)O1` (centres undefined), the Activity result in the data set on Mus musculus [3] is “Non-toxic”. The result in the data set with Mus musculus [1], in the data set on Mus musculus [2] and with Mus musculus [4] was inactive.
